Experiments:
[1] = biological target: human recombinant IRAK4 protein (Homo sapiens (Human), UniProt Q9NWZ3); test: IRAK4 enzyme assay (mass spectrometry readout); format: biochemical; conditions: 3 mM ATP, 0.2 nM enzyme; geometric mean of at least n=2, * single experiment
Summary of the method: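 0.2 nM IRAK4 preincubated 15 min at room temperature with compound (10-point half-log series, top 1 μM or 10 μM) in pH 7.4 Tris buffer with 3 mM ATP; 10 μM peptide substrate added, 2 h at room temperature, formic acid stop. Phospho/unphospho peptide ratio by LC-MS/MS; potency from curve fit, geometric mean of n≥2 or single run.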

[2] = biological target: IRAK4 auto-phosphorylation (Homo sapiens (Human), UniProt Q9NWZ3); test: IRAK4 phosphorylation cell assay in IL-1β-stimulated Karpas-299 cells; format: cell-based; conditions: IL-1β 22.7 ng/mL, pIRAK4 (Thr345/Ser346), geometric mean of at least 2 experiments
Chain of IRAK4 auto-phosphorylation (Q9NWZ3 whole entry): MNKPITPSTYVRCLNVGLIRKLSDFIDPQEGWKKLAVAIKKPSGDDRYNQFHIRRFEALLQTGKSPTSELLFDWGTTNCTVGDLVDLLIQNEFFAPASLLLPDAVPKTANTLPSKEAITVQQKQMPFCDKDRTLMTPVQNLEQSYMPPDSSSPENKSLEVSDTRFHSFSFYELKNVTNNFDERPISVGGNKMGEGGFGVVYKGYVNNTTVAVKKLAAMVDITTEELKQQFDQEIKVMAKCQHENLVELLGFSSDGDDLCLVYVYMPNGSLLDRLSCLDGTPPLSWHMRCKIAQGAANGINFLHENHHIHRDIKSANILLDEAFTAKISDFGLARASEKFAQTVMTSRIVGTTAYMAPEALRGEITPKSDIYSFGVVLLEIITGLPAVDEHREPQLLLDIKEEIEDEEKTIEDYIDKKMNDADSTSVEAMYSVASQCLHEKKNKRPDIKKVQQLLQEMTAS
Summary of the method: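 Karpas-299 cells were preincubated 1 h at 37 °C with compound (10-point half-log series, top 30 μM), then stimulated 10 min with 22.7 ng/mL IL-1β. Cells were fixed and stained for pIRAK4 (Thr345/Ser346), and per-cell fluorescence was quantified by high-content imaging. IC50 values are geometric means of at least 2 experiments.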

Chain of human recombinant IRAK4 protein (Q9NWZ3 whole entry): as above

IC50 [1]: 1.1 nM
IC50 [2]: 36 nM
SMILES: COc1cc2nn([C@@H]3CC[C@@H](O)C[C@H]3C)cc2cc1C(=O)Nc1cnc2cccnn12 [Example 89, 2-((1R,2R,4R)-4-hydroxy-2-methylcyclohexyl)-N-(imidazo[1,2-b]pyridazin-3-yl)-6-methoxy-2H-indazole-5-carboxamide]
